Legend:
Assay in all cases: Test E pre-/postemergence herbicide test
common mallow = type: in vivo, Malva sylvestris
Summary of the method: (§1)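 Seeds were planted and treated preemergence with test chemicals in a non-phytotoxic solvent mixture containing surfactant; plants at 2 to 18 cm (1- to 4-leaf stage) received postemergence applications of the same formulation. After 12 to 14 days in a greenhouse, injury was visually rated against untreated controls on a 0 to 100 scale.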

common chickweed = type: in vivo, Stellaria media
Summary of the method: as §1

purple nutsedge = type: in vivo, Cyperus rotundus
Summary of the method: as §1

pitted morningglory = type: in vivo, Ipomoea lacunosa
Summary of the method: as §1

Italian ryegrass = type: in vivo, Lolium multiflorum
Summary of the method: as §1

guineagrass = type: in vivo, Panicum maximum
Summary of the method: as §1

mustard = type: in vivo, Brassica nigra
Summary of the method: as §1

common sowthistle = type: in vivo, Sonchus oleraceous
Summary of the method: as §1

broadleaf signalgrass = type: in vivo, Brachiaria platyphylla
Summary of the method: as §1

Surinam grass = type: in vivo, Urochloa decumbens
Summary of the method: as §1

bermudagrass = type: in vivo, Cynodon dactylon
Summary of the method: as §1

Canada horseweed = type: in vivo, Erigeron Canadensis
Summary of the method: as §1

[1] = Postemergence, 250 g ai/ha, scale 0 to 100
[2] = Preemergence, 62 g ai/ha, scale 0 to 100
[3] = Preemergence, 250 g ai/ha, scale 0 (no effect) to 100 (complete control)
[4] = Preemergence, 500 g ai/ha, scale 0 (no effect) to 100 (complete control)
[5] = postemergence, 125 g ai/ha, scale 0 to 100
[6] = postemergence, 62 g ai/ha, scale 0 to 100
[7] = Preemergence, 125 g ai/ha, scale 0 (no effect) to 100 (complete control)
[8] = Preemergence, 125 g ai/ha, scale 0 to 100
[9] = Postemergence, 500 g ai/ha, scale 0 to 100

CCNC(=O)c1ccc(F)c(NC(=O)c2cc(C(C)(C)C)nn2CC)c1 [Compound 2, 3-(1,1-dimethylethyl)-1-ethyl-N-[5-[(ethylamino)carbonyl]-2-fluorophenyl]-1H-pyrazole-5-carboxamide]
98: Plant response rating, Ryegrass, Italian (Italian ryegrass; [1])
70: Plant response rating, Guineagrass (guineagrass; [2]) | Plant response rating, Signalgrass (broadleaf signalgrass; [7])
60: Plant response rating, Morningglory (pitted morningglory; [3]) | Plant response rating, Morningglory (pitted morningglory; [5]) | Plant response rating, Ryegrass, Italian (Italian ryegrass; [2]) | Plant response rating, Black Mustard (mustard; [2]) | Plant response rating, Surinam Grass (Surinam grass; [2])
95: Plant response rating, Chickweed (common chickweed; [3]) | Plant response rating, Chickweed (common chickweed; [4]) | Plant response rating, Nutsedge, Purple (purple nutsedge; [4]) | Plant response rating, Ryegrass, Italian (Italian ryegrass; [3]) | Plant response rating, Ryegrass, Italian (Italian ryegrass; [4]) | Plant response rating, Guineagrass (guineagrass; [1]) | Plant response rating, Black Mustard (mustard; [5]) | Plant response rating, Sowthistle (common sowthistle; [1]) | Plant response rating, Sowthistle (common sowthistle; [7]) | Plant response rating, Sowthistle (common sowthistle; [3]) | Plant response rating, Sowthistle (common sowthistle; [4]) | Plant response rating, Bermudagrass (bermudagrass; [7])
30: Plant response rating, Mallow (common mallow; [2]) | Plant response rating, Morningglory (pitted morningglory; [2]) | Plant response rating, Guineagrass (guineagrass; [6]) | Plant response rating, Signalgrass (broadleaf signalgrass; [6])
20: Plant response rating, Bermudagrass (bermudagrass; [6])
80: Plant response rating, Mallow (common mallow; [1]) | Plant response rating, Mallow (common mallow; [4]) | Plant response rating, Morningglory (pitted morningglory; [4]) | Plant response rating, Ryegrass, Italian (Italian ryegrass; [7]) | Plant response rating, Ryegrass, Italian (Italian ryegrass; [6]) | Plant response rating, Guineagrass (guineagrass; [7]) | Plant response rating, Signalgrass (broadleaf signalgrass; [5]) | Plant response rating, Surinam Grass (Surinam grass; [8]) | Plant response rating, Surinam Grass (Surinam grass; [3]) | Plant response rating, Horseweed (Canada horseweed; [2])
85: Plant response rating, Signalgrass (broadleaf signalgrass; [1]) | Plant response rating, Bermudagrass (bermudagrass; [5])
90: Plant response rating, Chickweed (common chickweed; [2]) | Plant response rating, Chickweed (common chickweed; [7]) | Plant response rating, Morningglory (pitted morningglory; [1]) | Plant response rating, Ryegrass, Italian (Italian ryegrass; [5]) | Plant response rating, Black Mustard (mustard; [6]) | Plant response rating, Sowthistle (common sowthistle; [2]) | Plant response rating, Sowthistle (common sowthistle; [5]) | Plant response rating, Sowthistle (common sowthistle; [6]) | Plant response rating, Signalgrass (broadleaf signalgrass; [4]) | Plant response rating, Surinam Grass (Surinam grass; [4]) | Plant response rating, Surinam Grass (Surinam grass; [5]) | Plant response rating, Bermudagrass (bermudagrass; [1]) | Plant response rating, Bermudagrass (bermudagrass; [2])
100: Plant response rating, Chickweed (common chickweed; [5]) | Plant response rating, Guineagrass (guineagrass; [3]) | Plant response rating, Guineagrass (guineagrass; [4]) | Plant response rating, Black Mustard (mustard; [1]) | Plant response rating, Black Mustard (mustard; [7]) | Plant response rating, Black Mustard (mustard; [3]) | Plant response rating, Black Mustard (mustard; [4]) | Plant response rating, Surinam Grass (Surinam grass; [1]) | Plant response rating, Bermudagrass (bermudagrass; [3]) | Plant response rating, Bermudagrass (bermudagrass; [4]) | Plant response rating, Horseweed (Canada horseweed; [7]) | Plant response rating, Horseweed (Canada horseweed; [3]) | Plant response rating, Horseweed (Canada horseweed; [4])
50: Plant response rating, Mallow (common mallow; [3]) | Plant response rating, Mallow (common mallow; [6]) | Plant response rating, Morningglory (pitted morningglory; [7]) | Plant response rating, Signalgrass (broadleaf signalgrass; [2])
75: Plant response rating, Mallow (common mallow; [5]) | Plant response rating, Guineagrass (guineagrass; [5]) | Plant response rating, Signalgrass (broadleaf signalgrass; [3]) | Plant response rating, Surinam Grass (Surinam grass; [6])

CCn1nc(C(C)(C)C)cc1C(=O)Nc1cccc(C(N)=O)n1 [Compound 162, 6-[[[3-(1,1-dimethylethyl)-1-ethyl-1H-pyrazol-5-yl]carbonyl]amino]-2-pyridinecarboxamide]
40: Plant response rating, Mallow (common mallow; [6]) | Plant response rating, Sowthistle (common sowthistle; [2])
90: Plant response rating, Morningglory (pitted morningglory; [9]) | Plant response rating, Guineagrass (guineagrass; [1]) | Plant response rating, Black Mustard (mustard; [1]) | Plant response rating, Signalgrass (broadleaf signalgrass; [9]) | Plant response rating, Surinam Grass (Surinam grass; [5]) | Plant response rating, Bermudagrass (bermudagrass; [3])
100: Plant response rating, Mallow (common mallow; [9]) | Plant response rating, Mallow (common mallow; [3]) | Plant response rating, Mallow (common mallow; [4]) | Plant response rating, Chickweed (common chickweed; [1]) | Plant response rating, Chickweed (common chickweed; [5]) | Plant response rating, Morningglory (pitted morningglory; [4]) | Plant response rating, Ryegrass, Italian (Italian ryegrass; [9]) | Plant response rating, Guineagrass (guineagrass; [8]) | Plant response rating, Guineagrass (guineagrass; [3]) | Plant response rating, Guineagrass (guineagrass; [4]) | Plant response rating, Black Mustard (mustard; [4]) | Plant response rating, Sowthistle (common sowthistle; [9]) | Plant response rating, Signalgrass (broadleaf signalgrass; [3]) | Plant response rating, Signalgrass (broadleaf signalgrass; [4]) | Plant response rating, Surinam Grass (Surinam grass; [9]) | Plant response rating, Surinam Grass (Surinam grass; [4]) | Plant response rating, Bermudagrass (bermudagrass; [4]) | Plant response rating, Horseweed (Canada horseweed; [9]) | Plant response rating, Horseweed (Canada horseweed; [1]) | Plant response rating, Horseweed (Canada horseweed; [2]) | Plant response rating, Horseweed (Canada horseweed; [8]) | Plant response rating, Horseweed (Canada horseweed; [3]) | Plant response rating, Horseweed (Canada horseweed; [4])
85: Plant response rating, Morningglory (pitted morningglory; [3])
30: Plant response rating, Morningglory (pitted morningglory; [2]) | Plant response rating, Morningglory (pitted morningglory; [6]) | Plant response rating, Signalgrass (broadleaf signalgrass; [6]) | Plant response rating, Bermudagrass (bermudagrass; [5])
95: Plant response rating, Chickweed (common chickweed; [8]) | Plant response rating, Chickweed (common chickweed; [3]) | Plant response rating, Chickweed (common chickweed; [4]) | Plant response rating, Ryegrass, Italian (Italian ryegrass; [8]) | Plant response rating, Ryegrass, Italian (Italian ryegrass; [3]) | Plant response rating, Ryegrass, Italian (Italian ryegrass; [4]) | Plant response rating, Ryegrass, Italian (Italian ryegrass; [5]) | Plant response rating, Black Mustard (mustard; [9]) | Plant response rating, Sowthistle (common sowthistle; [4])
50: Plant response rating, Mallow (common mallow; [2]) | Plant response rating, Ryegrass, Italian (Italian ryegrass; [2]) | Plant response rating, Ryegrass, Italian (Italian ryegrass; [6]) | Plant response rating, Guineagrass (guineagrass; [2]) | Plant response rating, Black Mustard (mustard; [8]) | Plant response rating, Surinam Grass (Surinam grass; [6])
20: Plant response rating, Black Mustard (mustard; [2])
70: Plant response rating, Mallow (common mallow; [8]) | Plant response rating, Morningglory (pitted morningglory; [5]) | Plant response rating, Signalgrass (broadleaf signalgrass; [8]) | Plant response rating, Signalgrass (broadleaf signalgrass; [5]) | Plant response rating, Bermudagrass (bermudagrass; [1]) | Plant response rating, Bermudagrass (bermudagrass; [2]) | Plant response rating, Horseweed (Canada horseweed; [5]) | Plant response rating, Horseweed (Canada horseweed; [6])
75: Plant response rating, Nutsedge, Purple (purple nutsedge; [1]) | Plant response rating, Guineagrass (guineagrass; [5]) | Plant response rating, Black Mustard (mustard; [5]) | Plant response rating, Sowthistle (common sowthistle; [1]) | Plant response rating, Sowthistle (common sowthistle; [5]) | Plant response rating, Sowthistle (common sowthistle; [6]) | Plant response rating, Surinam Grass (Surinam grass; [8])
60: Plant response rating, Mallow (common mallow; [5]) | Plant response rating, Morningglory (pitted morningglory; [8]) | Plant response rating, Black Mustard (mustard; [6]) | Plant response rating, Sowthistle (common sowthistle; [8]) | Plant response rating, Surinam Grass (Surinam grass; [2])
80: Plant response rating, Mallow (common mallow; [1]) | Plant response rating, Chickweed (common chickweed; [6]) | Plant response rating, Morningglory (pitted morningglory; [1]) | Plant response rating, Black Mustard (mustard; [3]) | Plant response rating, Sowthistle (common sowthistle; [3]) | Plant response rating, Signalgrass (broadleaf signalgrass; [1]) | Plant response rating, Bermudagrass (bermudagrass; [9]) | Plant response rating, Bermudagrass (bermudagrass; [8])
35: Plant response rating, Guineagrass (guineagrass; [6])
98: Plant response rating, Ryegrass, Italian (Italian ryegrass; [1]) | Plant response rating, Guineagrass (guineagrass; [9]) | Plant response rating, Surinam Grass (Surinam grass; [1])
0: Plant response rating, Nutsedge, Purple (purple nutsedge; [2]) | Plant response rating, Bermudagrass (bermudagrass; [6])
